Assay results reported in PMC5556071, “ATR inhibition facilitates targeting of leukemia dependence on convergent nucleotide biosynthetic pathways” (Nature Communications, 2017).
Values joined by “and” are separate entries in the source; they are usually repeats but may differ in a detail not shown here. Equal values may be shown once.

Test system: CEM cells
Experiment: Non-targeted LC-MS metabolite profiling: percent [13C6]glucose labeling and relative metabolite levels
Format: cell-based, human
Details: CEM cells, 12 h following release from G1 arrest, replicates #1-#6
Source text: To further investigate the functions of dCK and ATR at the G1/S transition in CEM cells, a non-targeted liquid chromatography mass spectrometry (LC-MS) assay was used to determine the utilization of labeled [^13C6]glucose and [^13C9,^15N3]deoxycytidine, the main substrates for de novo and salvage nucleotide biosynthesis, respectively. Of the 166 metabolites identified in CEM cells treated with VE-822 and/or dCKi, 105 metabolites found in all four treatment groups contained glucose-derived ^13C atoms. […] These metabolites included intermediates such as rUTP, rCTP and rCDP in the de novo dCTP biosynthesis (Fig. 1d). […] However, several deoxyribonucleotides, including dCTP, were below the limit of detection of the non-targeted LC-MS approach, raising the concern that the sensitivity of this assay is not sufficient to measure the contribution of the salvage pathway or the ratio of de novo and salvage biosynthesis to these pools. To address this problem, a newly developed targeted MS assay was developed (Fig. 1e and Supplementary Fig. 3). In this assay, samples containing either extracted dNTPs or hydrolyzed DNA from labeled cells are separated by LC for detection by a triple quadrupole mass spectrometer using multiple reaction monitoring (LC-MS/MS-MRM). The first (Q1) and third (Q3) quadrupoles function as mass filters, while the second (Q2) quadrupole serves as a collision chamber (Fig. 1e). For instance, to profile the biosynthetic composition of deoxycytidine (dC) derived from hydrolyzed DNA or dCTP, an intact, protonated dC ion is selected in Q1, followed by fragmentation of the glycosidic bond, which releases protonated cytosine in Q2, that is filtered in Q3 and detected to generate an ion chromatogram. The peak areas for the ion chromatograms of salvage [^13C9,^15N3]dC (red trace), de novo [^13C5]dC (black trace, from [^13C6]glucose) and unlabeled dC (gray trace) (Fig. 1e) are used to determine the relative contributions of the de novo and salvage routes both to dCTP pools and to DNA-incorporated dCTP.
Cells were transferred into RPMI-1640 without glucose and supplemented with 10% dialyzed FBS (Gibco) containing the following labeled substrates: precursors for de novo [U-^13C6]glucose (Sigma-Aldrich, 389374) at 11 mM; precursors for purine salvage [U-^13C10,^15N5]dA (Cambridge Isotopes, CIL 3896), [^15N5]dA (Cambridge Isotopes, NLM-3895) and [^15N5]dG (Cambridge Isotopes, NLM-3899) at 5 µM or as indicated; and precursors for pyrimidine salvage: [U-^13C9,^15N3]dC (Silantes, 124603602) and [U-^13C10,^15N2]dT (Cambridge Isotopes, CNLM-3902) at 5 µM and [^15N2]orotate (Cambridge Isotopes, NLM-1048) at indicated concentrations. The cells were incubated for 12 h or as indicated before sample collection and processing. […]
Non-targeted LC-MS metabolic assays. 1 x 10^6 cells were washed with ice-cold 150 mM ammonium acetate twice before adding 1 mL of ice-cold 80% methanol with 10 nM norvaline as an internal standard. After vigorous vortexing, samples were centrifuged at maximum speed, the aqueous layer was transferred to a glass vial and the metabolites were dried under vacuum. Metabolites were resuspended in 50 μL 70% acetonitrile (ACN) and 5 μL of this solution used for the mass spectrometer-based analysis. The analysis was performed on a Q Exactive (Thermo Scientific) in polarity-switching mode with positive voltage 4.0 kV and negative voltage 4.0 kV. The mass spectrometer was coupled to an UltiMate 3000RSLC (Thermo Scientific) UHPLC system. Mobile phase A was 5 mM ammonium acetate (NH4AcO), pH 9.9, B was acetonitrile and the separation achieved on a Luna […] NH2 100 A column (150 × 2.0 mm, Phenomenex). The flow was 200 μL/min, and the gradient ran from 15% A to 95% A in 18 min, followed by an isocratic step for 9 min and re-equilibration for 7 min. Metabolites were detected and quantified as area under the curve based on retention time and accurate mass (≤ 3 p.p.m.) using the TraceFinder 3.1 (Thermo Scientific). Relative amounts of […]

For `COc1ccc(-c2nc([C@@H](C)Sc3nc(N)cc(N)n3)c(C)s2)cc1OCCNS(C)(=O)=O` [dCKi], the “Glucose labeling, Trp (C00078)” value was 0.00%, the “Glucose labeling, Val (C00183)” value was 0.00% and the “Relative level, PEP” value was 0.343. The “Glucose labeling, Isocaproate” value (listed as D) was 0.00% (5×) and -2.22e-14%, the “Glucose labeling, Lac” value (listed as D) was 17.43% and 30.68% and 33.28% and 15.68% and 13.00% and 14.89% and the “Glucose labeling, Leu/Ile” value (listed as D) was -2.22e-14% and 0.00% (4×) and 1.11e-14%. The “Glucose labeling, Mal” value (listed as D) was 22.81% and 24.17% and 24.40% and 21.37% and 22.21% and 23.38%, the “Glucose labeling, Met” value (listed as D) was 0.00216% and 0.00198% and 0.00236% and 0.00202% and 0.00192% and 0.00223% and the “Glucose labeling, N-Carbamoyl-L-aspartate” value (listed as D) was 0.000983% and 0.12% (2×) and 0.00101% and 100.00% (2×). The “Glucose labeling, NADP+” value (listed as D) was 100.00% (4×) and 0.00% (2×), the “Glucose labeling, Ornithine” value (listed as D) was 0.08% (2×) and 0.12% (3×) and 0.09% and the “Glucose labeling, Orotate” value (listed as D) was 5.20% and 3.14% and 4.02% and 100.00% and 0.12% (2×). The “Glucose labeling, Orotidine” value (listed as D) was 49.18% and 49.16% and 49.11% and 54.80% and 53.82% and 55.45%, the “Glucose labeling, P-Choline” value (listed as D) was 0.00228% and 0.00166% (2×) and 0.00229% and 0.00101% and 0.00171% and the “Glucose labeling, P-Ser” value (listed as D) was 21.30% and 20.75% and 19.61% and 16.22% and 19.77% and 14.08%. The “Glucose labeling, Palmitate” value (listed as D) was 0.0136% and 0.0179% and 0.09% and 0.03% and 0.0457% and 0.04%, the “Glucose labeling, Pantothenate” value (listed as D) was 0.00% (5×) and 1.11e-14% and the “Glucose labeling, Pro” value (listed as D) was 9.90% and 11.07% and 10.77% and 9.63% and 9.83% and 9.85%. For the same compound, the “Glucose labeling, Pro-OH” value (listed as D) was 0.00135% and 0.00138% and 0.000869% and 0.0017% and 0.00248% and 0.00239%, the “Glucose labeling, R5P” value (listed as D) was 87.51% and 100.00% (5×) and the “Glucose labeling, S7P” value (listed as D) was 85.34% and 43.01% and 49.65% and 0.26% and 34.90% and 73.97%. The “Glucose labeling, SAM” value (listed as D) was 73.81% and 73.09% and 74.83% and 72.35% and 72.18% and 72.31%, the “Glucose labeling, Sarc (C00213)” value (listed as D) was 0.0243% (2×) and 0.0369% (3×) and 0.0225% and the “Glucose labeling, Ser (C00065)” value (listed as D) was 13.87% and 15.01% and 14.51% and 12.51% and 11.83% and 11.82%. The “Glucose labeling, Shikimate (C00493)” value (listed as D) was 0.00% (5×) and 1.11e-14%, the “Glucose labeling, Succ (C00042)” value (listed as D) was 0.0276% and 1.49% and 1.88% and 0.0331% and 0.0737% (2×) and the “Glucose labeling, T (C00214)” value (listed as D) was 0.15% and 0.44% and 0.32% and 0.24% and 0.03% and 0.02%. For the same compound, the “Glucose labeling, Thymine (C00178)” value (listed as D) was 0.02% (2×) and 0.00812% and 0.0214% and 0.0432% and 0.0317%, the “Glucose labeling, Tyr (C00082)” value (listed as D) was 0.00% (5×) and 1.11e-14% and the “Glucose labeling, Tyramine (C00483)” value (listed as D) was 0.00% (5×) and 1.11e-14%. For the same compound, the “Glucose labeling, UDP (C00015)” value (listed as D) was 74.72% and 81.32% and 85.65% and 45.74% and 66.67% and 72.12%, the “Glucose labeling, UDP-Glc (C00029)” value (listed as D) was 95.49% and 96.74% and 98.34% and 91.90% and 85.90% and 94.22% and the “Glucose labeling, UDP-GlcNAc (C00043)” value (listed as D) was 91.41% and 90.20% and 90.50% and 87.89% and 87.54% and 87.94%. The “Glucose labeling, UMP (C00105)” value (listed as D) was 79.30% and 82.81% and 83.09% and 50.51% and 65.12% and 69.81%, the “Glucose labeling, UTP (C00075)” value (listed as D) was 90.44% and 89.69% and 89.62% and 94.73% and 88.15% and 87.27% and the “Glucose labeling, Uracil (C00106)” value (listed as D) was 0.0737% (3×) and 0.06% and 0.05% and 0.065%. For the same compound, the “Glucose labeling, Uric Acid (C00366)” value (listed as D) was 0.00% (4×) and -2.22e-14% (2×), the “Glucose labeling, Urocanate (C00785)” value (listed as D) was 0.00% (5×) and 1.11e-14% and the “Glucose labeling, Vit-C (C00072)” value (listed as D) was 0.00% (4×) and 1.11e-14% (2×). The “Glucose labeling, Xanthine (C00385)” value (listed as D) was 0.10% (2×) and 0.12% (3×) and 0.08%, the “Relative level, Isocaproate” value (listed as D) was 1.0 (2×) and 0.8 and 0.9 (3×) and the “Relative level, Lac” value (listed as D) was 1.1 and 0.9 and 1.0 and 0.446 and 0.548 and 0.7. The “Relative level, Leu/Ile” value (listed as D) was 1.0 and 1.3 and 1.5 and 0.8 (2×) and 0.9, the “Relative level, Lys” value (listed as D) was 1.2 (2×) and 1.5 and 0.8 (2×) and 0.9 and the “Relative level, Mal” value (listed as D) was 0.8 and 1.0 and 1.4 and 0.339 and 0.53 and 0.65. For the same compound, the “Relative level, Met” value (listed as D) was 1.0 and 1.3 and 1.4 and 0.8 (2×) and 0.9, the “Relative level, N-Carbamoyl-L-aspartate” value (listed as D) was 0.7 and 1.5 and 2.9 and 0.5 and the “Relative level, NAD+” value (listed as D) was 0.8 and 1.1 (2×) and 1.3 and 0.553 and 0.7. The “Relative level, NADP+” value (listed as D) was 1.6 and 0.273, the “Relative level, Nicotinamide” value (listed as D) was 1.3 and 1.4 and 1.2 and 0.7 and 0.743 and 0.527 and the “Relative level, Ornithine” value (listed as D) was 1.6 and 0.9 and 1.1 and 0.8 (2×) and 1.0. For the same compound, the “Relative level, Orotate” value (listed as D) was 0.468 and 0.9 and 0.8 and 0.0556 and 0.0189, the “Relative level, Orotidine” value (listed as D) was 1.2 and 1.6 and 1.5 and 0.8 (2×) and 0.9 and the “Relative level, P-Choline” value (listed as D) was 1.0 and 1.1 and 1.4 and 0.5 (2×) and 0.65. For the same compound, the “Relative level, P-Creatine” value (listed as D) was 0.8 and 0.6 and 1.6 and 2.2 and 1.2 and 1.5, the “Relative level, P-EtA” value (listed as D) was 0.9 and 0.452 and 1.3 and 0.5 and 0.6 and 0.8 and the “Relative level, P-Ser” value (listed as D) was 1.2 and 1.3 (2×) and 0.3 and 0.317 and 0.334. For the same compound, the “Relative level, Palmitate” value (listed as D) was 1.1 (4×) and 0.85 and 0.9, the “Relative level, Pantothenate” value (listed as D) was 1.2 and 1.6 and 1.7 and 0.9 (3×) and the “Relative level, Phe” value (listed as D) was 1.1 and 1.4 and 1.6 and 0.9 (2×) and 1.0. For the same compound, the “Relative level, Pipecolate” value (listed as D) was 1.2 and 1.1 and 1.4 and 0.8 and 0.7 and 0.9, the “Relative level, Pro” value (listed as D) was 1.0 and 1.3 (2×) and 0.8 (2×) and 0.753 and the “Relative level, Pro-OH” value (listed as D) was 1.1 and 1.2 and 1.3 and 0.8 (2×) and 0.75. For the same compound, the “Relative level, Pyr” value (listed as D) was 0.171 and 2.0 and 11.3 and 1.7 and 3.4 and 3.3 and the “Relative level, R5P” value (listed as D) was 0.9 and 0.4 and 2.2 and 0.2.
